Data on four compounds can be found in patent US5760027A, “Use of 7-alkylidene cephalosporins to inhibit elastase activity” (Research Corporation Technologies, Inc., priority 1996, dated 1998).

As usually defined, the IC50 is the concentration that gives 50% inhibition. High values mean a need for much substance, low ones inhibition by little substance.

Assay [1] concerns the target porcine pancreatic elastase (PPE) (Sus scrofa, UniProt P00772). Put plainly: IC50 determination, inhibition of porcine pancreatic elastase (PPE). It is filed as biochemical. The settings on record: 5 min incubation with the inhibitor.
Assay [2] deals with T1, human leukocyte elastase (HLE) (Homo sapiens, UniProt P08246).
T1 construct: purchased Elastin Products Company, Inc. (Owensville, Mo.)
T1 sequence (P08246 30-267): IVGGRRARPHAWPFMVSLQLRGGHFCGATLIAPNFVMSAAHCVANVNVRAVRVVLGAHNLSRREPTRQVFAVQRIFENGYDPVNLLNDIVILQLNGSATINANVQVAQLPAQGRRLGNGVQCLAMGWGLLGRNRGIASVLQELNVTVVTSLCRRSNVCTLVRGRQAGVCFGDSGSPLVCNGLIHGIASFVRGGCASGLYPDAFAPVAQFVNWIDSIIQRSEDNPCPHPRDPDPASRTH
Nature of the assay: IC50 determination, inhibition of human leukocyte elastase (HLE), hydrolysis of N-(methoxysuccinyl)-L-alanyl-L-alanyl-L-prolyl-L-valine 4-nitroanilide at 410 nm. The conditions noted are these: 5 min incubation with the inhibitor; pH 7.5 Tris buffer. It is filed as biochemical.

The target in another assay is T2, HLE (Homo sapiens, UniProt P08246).
T2 construct: chromogenic substrate MeOSuc-AAPV-pNA
T2 sequence (P08246 30-267): T1 sequence (P08246 30-267)
Put plainly: inhibition of HLE followed as a function of time (FIG. 1). It is filed as biochemical. The conditions noted are these: 10-fold molar excess of inhibitor, assayed at regular intervals (2 to 5 minutes). The protocol: To further document the rapid, irreversible inhibition of this enzyme at low, nearly stoichiometric ratios of inhibitor to enzyme, for selected compounds, this inhibition was followed as a function of time.
The data in FIG. 1 were generated by incubating the enzyme with a 10-fold molar excess of inhibitor. Assays of residual enzymatic activity of this mixture were assayed at regular intervals (2 to 5 minutes).

The subject of another assay is b-lactamase. The settings on record: commercial b-lactamase inhibitors, for comparison; cited from earlier work.

porcine pancreatic elastase (PPE), sequence (P00772 27-266): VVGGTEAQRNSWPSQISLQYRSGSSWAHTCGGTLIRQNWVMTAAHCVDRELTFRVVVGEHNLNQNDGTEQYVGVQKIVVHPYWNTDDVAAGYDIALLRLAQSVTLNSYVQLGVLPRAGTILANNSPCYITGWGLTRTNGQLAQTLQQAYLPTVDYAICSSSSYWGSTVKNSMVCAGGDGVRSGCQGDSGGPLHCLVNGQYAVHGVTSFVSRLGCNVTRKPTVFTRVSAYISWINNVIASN

As to `CC(=O)OCC1=C(C(=O)OC(c2ccccc2)c2ccccc2)N2C(=O)C(=C(Cl)Cl)[C@H]2SC1` [Compound 22, Benzhydryl 7-[dichloromethylene]cephalosporanate], the half-maximal inhibitory concentration (IC50) in assay [1] was over 10 µM; in assay [2] it was 6.41 µM. Also, the “residual HLE activity / inhibition as a function of time” value (“residual HLE activity / inhibition” for short) on HLE is on record as “very potent, irreversible inhibitors of HLE”.

Take `COC(=O)/C=C1/C(=O)N2C(C(=O)OC(c3ccccc3)c3ccccc3)=C(COC(C)=O)CS[C@H]12` [Compound 24, Benzhydryl 7-[(Z)-methoxycarbonylmethylene]cephalosporanate]: the results for the IC50 in assay [1] and in assay [2] were over 10 µM and 2.6 µM, respectively. Besides, the “residual HLE activity / inhibition” value on HLE is recorded as “very potent, irreversible inhibitors of HLE”.

On to `CC(=O)/C=C1/C(=O)N2C(C(=O)OC(c3ccccc3)c3ccccc3)=C(COC(C)=O)CS[C@H]12` [Compound 28, Benzhydryl 7-[(Z)-acetylmethylene]cephalosporanate], for which the IC50 was over 10 µM in assay [1] and 4.27 µM in assay [2]. In addition, the “residual HLE activity / inhibition” value at HLE is “leveling off and allowing the enzyme to regain its activity”.

In the case of `O=C(O)[C@H]1/C(=C/CO)O[C@@H]2CC(=O)N21` [clavulanic acid], the “ratio at which inhibitor must be used” value with b-lactamase was 200 to 1.
